In patent US7342025B2, “Substituted C-imidazo[1,2-a]pyridin-3-yl-methylamines” (Gruenenthal GmbH, priority 2002, dated 2008):

Target: nitrogen monoxide synthase (Rattus norvegicus, UniProt P29476)
Assay: citrulline assay, inhibition of NO synthase
Assay type: biochemical
Protocol: The IC50 value of each of the example compounds as an inhibitor of NO synthase was determined in a citrulline assay. This assay was carried out as described by D. S. Bredt and S. H. Snyder (Proc. Natl. Acad. Sci. USA (1990), 87, 682-685).

| Compound | IC50 |
| --- | --- |
| Cc1ccnc(NCc2c(C)nc3cc(C)ccn23)c1 [Example 2, (2,7-Dimethyl-imidazo[1,2-a]pyridin-3-ylmethyl)-(4-methyl-pyridin-2-yl)-amine] | 2.5 µM |
| Cc1ccn2c(CN(C)C)c(C)nc2c1 [Example 1] | 4 µM |
